This note sets out measurements from patent publication US6486193B2, “3-substituted pyrrolidines useful as inhibitors of matrix metalloproteinases” (Aventis Pharmaceuticals Inc., priority 1998, dated 2002).

Assay type in all cases: biochemical
The target in assay [1] is T1, MMP-3 (Homo sapiens, UniProt P08254).
T1 construct: The active MMP-3 was obtained by treatment of proMMP-3 with trypsin; endogenous in cells; host or cells: human rheumatoid synovial fibroblasts stimulated with macrophage-conditioned medium (secreted proenzyme purified from the medium)
Nature of the assay: Determination of inhibition constant (Ki) for MMP-3, fluorogenic substrate. The following applies: footnote: results are identical for MMP-1, MMP-2, MMP-3, MMP-13 and MMP-14, read-out: MMP Ki app. On the procedure: ProMMP-3 (EC 3.4.24.17; Stromelysin-1) was purified from culture medium of human rheumatoid synovial fibroblasts stimulated with macrophage-conditioned medium according to Okada, Y. et al., J. Biol. Chem. 261, 14245-14255 (1986). The active MMP-3 was obtained by treatment of proMMP-3 with trypsin (5 μg/mL) at 37° C. for 30 minutes, followed by addition of soybean trypsin inhibitor (50 μg/mL). Aliquots of the activated MMP-3 were stored at −20° C.
The activated MMP-3 is assayed using a fluorogenic substrate, Mca-Pro-Leu-Gly-Leu-Dpa-Ala-Arg-NH2, Knight, C.G. et al., FEBS Lett. 296, 263-266 (1992), at 37° C. in an assay buffer containing 50 mM Tris, pH 7.6, 0.2 M sodium chloride, 50 mM calcium chloride, and 0.02% Brij-35. The increase in fluorescence due to cleavage of Gly-Leu peptide bond by MMP-3 was monitored with Perkin-Elmer LS50B Fluorimeter (λex 328 nm, λem 393 nm, excitation slit 2.5, emission slit 10). Substrate and inhibitor stock solutions were made in DMF and 0.1 % HCl-DMF, respectively. For determination of Ki values for MMP-3 inhibitors, a series of intermediate inhibitor solutions were prepared in 0.1% HCl-DMF and 1 or 2 μL of the diluted inhibitor solution was mixed with 1 μL of 2 mM substrate solution in DMF in a quartz cuvette containing 2 mL of assay buffer. The enzyme (10 μL of 0.2 μM MMP-3 dilution in assay buffer) was added at the last to start the reaction. For routine measurement of a Ki value for a reversible, competitive inhibitor, the initial rates in the presence of at least four inhibitor concentrations (two concentrations above Ki and two concentrations below Ki) were measured using [S]=1 μM (<<Km) and [MMP-3]=1 nM. Under these conditions, the measured Ki, app is close to true Ki.
The K, for a competitive inhibitor is calculated using: V0/vi=(1+[I]/Ki, app) and Ki=Ki, app/(1+[S]/Km), where v0 is the initial rate in the absence of inhibitor, vi is the initial rate in the presence of inhibitor at the concentration of [I], [S] is the substrate concentration, and Km is the Michaelis constant. If slow binding is observed (i.e. if the approach to the binding equilibrium is slow), the final steady-state rate rather than the initial rate is taken as vi.

Assay [2] addresses MMP-13 (Homo sapiens, UniProt P45452). Put plainly: Ki app for MMP-13. The following applies: footnote: results are identical for MMP-1, MMP-2, MMP-3, MMP-13 and MMP-14.
The target in assay [3] is MMP-14 (Homo sapiens, UniProt P50281). Put plainly: Ki app for MMP-14. The following applies: footnote: results are identical for MMP-1, MMP-2, MMP-3, MMP-13 and MMP-14.
Assay [4] concerns the target MMP-8 (Homo sapiens, UniProt P22894). Put plainly: MMP-8 enzyme activity, quenched fluorigenic substrate, 96 well plate. The following applies: read-out: MMP-8 Ki app. Here is the method:
The MMP-8 data was determined according to Knight C. G. et al., Febs Lett, 296, 263-266 (1992), “A novel coumarin-labelled peptide for sensitive continuous assays of the matrix metalloproteinases” in the modification of K. U. Weithmann et al., Inflamm. Res. 46 (7), 246-252 (1997), “Effects of tiaprofenic acid on urinary pyridinium crosslinks in adjuvant arthritic rats: Comparison and doxycycline effects on human matrix metalloproteinases and cellular cytokine generation in vitro” as follows:
Enzyme activity of MMP was determined in 96 well titer plate format in a luminescence spectrometer (LS 50B, Perkin Elmer, Langen, FRG), using the quenched fluorigenic substrate 7-methoxycoumarin-4-yl) acetyl-pro-leu-gly-leu-3-(2′,4′-dinitrophenyl)-L-2,3-diaminopropionyl-ala-arg-NH2 (λex=328 nm, λem=393 nm), available from Bachem, Heidelberg, FRG. Each well contained: 70 μl buffer (0.1 mol/l tris/HCl, pH=7.5; 0.1 mol/l NaCl; 0.01 mol/l CaCl2,0.05% Brij 35™), 10 μl enzyme, and 10 μl drug in 10%DMSO. After preincubation for 15 min at room temperature the reaction was started by addition of 10 μl substrate (1 mmol/l in 10% DMSO). Initial velocity of enzymatic reaction was determined without drug (=100%) or, resp. with different drug concentrations.

Each structure is given as a SMILES string. Where only a bound is given, the exact number is not on record here.

T1 sequence (P08254 100-477): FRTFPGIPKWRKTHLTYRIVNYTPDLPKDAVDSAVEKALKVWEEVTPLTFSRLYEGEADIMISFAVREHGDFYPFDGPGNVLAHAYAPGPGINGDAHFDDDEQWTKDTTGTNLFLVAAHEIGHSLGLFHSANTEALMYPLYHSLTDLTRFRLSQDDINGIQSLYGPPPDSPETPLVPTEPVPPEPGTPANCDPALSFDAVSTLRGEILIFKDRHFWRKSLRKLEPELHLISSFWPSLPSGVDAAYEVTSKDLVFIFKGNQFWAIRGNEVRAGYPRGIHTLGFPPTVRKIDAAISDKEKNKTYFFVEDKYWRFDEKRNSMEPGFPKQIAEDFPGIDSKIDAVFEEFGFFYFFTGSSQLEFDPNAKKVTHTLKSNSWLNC
Sequence of MMP-8 (P22894 101-467): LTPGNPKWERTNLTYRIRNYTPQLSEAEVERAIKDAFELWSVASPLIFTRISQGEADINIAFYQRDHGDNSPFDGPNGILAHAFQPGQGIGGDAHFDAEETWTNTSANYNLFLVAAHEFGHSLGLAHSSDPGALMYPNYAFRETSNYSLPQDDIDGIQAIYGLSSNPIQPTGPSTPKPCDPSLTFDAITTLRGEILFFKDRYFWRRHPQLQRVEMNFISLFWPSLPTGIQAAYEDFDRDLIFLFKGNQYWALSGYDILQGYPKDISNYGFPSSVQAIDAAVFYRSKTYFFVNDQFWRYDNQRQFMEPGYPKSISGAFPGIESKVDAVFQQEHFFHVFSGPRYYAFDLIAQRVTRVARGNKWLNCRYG

Consider `CNC(=O)[C@H](Cc1cccnc1)NC(=O)[C@@H]1[C@H](Cc2ccccc2)CCN1C(=O)[C@@H](S)C(C)C` [Compound 1d, (2S,3R)-3-Benzyl-1-((S)-2-mercapto-3-methyl-butanoyl)-pyrrolidine-2-carboxylic acid ((S)-1-methylcarbamoyl-2-pyridin-3-yl-ethyl)-amide], for which the Ki in assay [1] is > 10 µM; in assay [2], > 10 µM; in assay [3] it was > 10 µM; in assay [4], 4 µM.
On to `CNC(=O)[C@@H](NC(=O)[C@@H]1[C@H](Cc2ccccc2)CCN1C(=O)[C@@H](S)C(C)C)C(C)(C)C` [Compound 1h, (2S,3R)-3-Benzyl-1-((S)-2-mercapto-3-methyl-butanoyl)-pyrrolidine-2-carboxylic acid ((S)-2,2-dimethyl-1-methylcarbamoyl-propyl)-amide], for which the Ki in assay [1] is > 10 µM; in assay [2] it was > 10 µM; in assay [3] it was > 10 µM; in assay [4], 3 µM.
For the molecule `CNC(=O)[C@@H](Cc1cccnc1)NC(=O)[C@@H]1C(Cc2ccccc2)CCN1C(=O)[C@@H](S)C(C)C` (stereo in doubt) [Compound 1f, (2S,3S)-3-Benzyl-1-((S)-2-mercapto-3-methyl-butanoyl)-pyrrolidine-2-carboxylic acid ((R)-1-methylcarbamoyl-2-pyridin-3-yl-ethyl)-amide], the Ki in assay [1], in assay [2], in assay [3] and in assay [4] was > 10 µM each time.
For `CNC(=O)[C@@H](Cc1cccnc1)NC(=O)[C@@H]1[C@@H](Cc2ccccc2)CCN1C(=O)[C@@H](S)C(C)C` [Compound 1e, (2S,3S)-3-Benzyl-1-((S)-2-mercapto-3-methyl-butanoyl)-pyrrolidine-2-carboxylic acid ((R)-1-methylcarbamoyl-2-pyridin-3-yl-ethyl)-amide], the Ki in assay [1], in assay [2], in assay [3] and in assay [4] was > 10 µM in each case.
For the molecule `CNC(=O)[C@@H](NC(=O)[C@@H]1[C@@H](Cc2ccccc2)CCN1C(=O)[C@@H](S)C(C)C)C(C)(C)C` [Compound 1g, (2S,3S)-3-Benzyl-1-((S)-2-mercapto-3-methyl-butanoyl)-pyrrolidine-2-carboxylic acid ((S)-2,2-dimethyl-1-methylcarbamoyl-propyl)-amide], the Ki in assay [1], in assay [2], in assay [3] and in assay [4] was > 10 µM each time.
For `CNC(=O)[C@H](Cc1cccnc1)NC(=O)[C@@H]1[C@@H](Cc2ccccc2)CCN1C(=O)[C@@H](S)C(C)C` [Compound 1c, (2S,3S)-3-Benzyl-1-((S)-2-mercapto-3-methyl-butanoyl)-pyrrolidine-2-carboxylic acid ((S)-1-methylcarbamoyl-2-pyridin-3-yl-ethyl)-amide], the Ki in assay [1] was > 10 µM; in assay [2], > 10 µM; in assay [3] it was > 10 µM; in assay [4], 9 µM.
In the case of `CNC(=O)[C@H](Cc1ccc(O)cc1)NC(=O)[C@@H]1[C@@H](Cc2ccccc2)CCN1C(=O)[C@@H](S)C(C)C` [Compound 1a, (2S,3S)-3-Benzyl-1-((S)-2-mercapto-3-methyl-butanoyl)-pyrrolidine-2-carboxylic acid [(S)-2-(4-hydroxy-phenyl)-1-methylcarbamoyl-ethyl]-amide], the Ki in assay [1], in assay [2], in assay [3] and in assay [4] was > 10 µM in each case.
As for `CNC(=O)[C@H](Cc1ccc(O)cc1)NC(=O)[C@@H]1[C@H](Cc2ccccc2)CCN1C(=O)[C@@H](S)C(C)C` [Compound 1b, (2S,3R)-3-Benzyl-1-((S)-2-mercapto-3-methyl-butanoyl)-pyrrolidine-2-carboxylic acid [(S)-2-(4-hydroxy-phenyl)-1-methylcarbamoyl-ethyl]-amide], the Ki in assay [1] is > 10 µM; in assay [2] it was > 10 µM; in assay [3] it was > 10 µM; in assay [4], 3 µM.
